Measured values from patent US20170283426A1, “COMPOUNDS FOR THE INHIBITION OF CYCLOPHILINS AND USES THEREOF” (Merck Patent GmbH, priority 2016, published 2017).

Legend:
CypD [1] = molecular target: T1, CypD (Homo sapiens, UniProt P30405); assay: CypD binding assay, competition Fluorescence-Polarisation with fluorescine labelled cyclosporin
Method: The binding capacity of the compounds were measured using a competition Fluorescence-Polarisation based assay with fluorescine labelled cyclosporin. The protocol used was adapted from Hausch et al, Med Chem lett 2010, p 536.

CypD [2] = molecular target: T1, CypD; assay: SPR binding; details: SPR surface; read-out: SPR CypD (KDss)
Description: Binding was confirmed on an SPR surface using a protocol adapted from Mori et al., J. Biomolecular Screening, 2009 p 419.

T1 sequence (P30405 30-207): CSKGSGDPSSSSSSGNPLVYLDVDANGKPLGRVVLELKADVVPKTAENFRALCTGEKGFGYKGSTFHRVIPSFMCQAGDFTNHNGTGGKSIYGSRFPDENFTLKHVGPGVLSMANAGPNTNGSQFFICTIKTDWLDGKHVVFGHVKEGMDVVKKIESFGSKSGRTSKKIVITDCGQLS

Compound	IC50 (CypD [1]) [µM]	Kd (CypD [2]) [µM]
O=C(NCCc1ccc2c(c1)[C@H]1C[C@@H](N2)[C@H](O)CO1)C(=O)N[C@@H]1C[C@H]2CC[C@@H]1C2 [Compound 2, N-Bicyclo[2.2.1]hept-2-yl-N′-[2-((1R,9R,10S)-10-hydroxy-12-oxa-8-aza-tricyclo[7.3.1.02,7]trideca-2,4,6-trien-4-yl)-ethyl]-oxalamide]	< 10	< 10
O=C(NCCc1ccccc1)C(=O)NCCc1ccc2c(c1)[C@H]1C[C@@H](N2)[C@H](O)CO1 [Compound 3, N1-(2-((2R,3S,6R)-3-hydroxy-2,3,4,6-tetrahydro-1H-2,6-methanobenzo[c][1,5]oxazocin-8-yl)ethyl)-N2-phenethyloxalamide]	< 10	< 10
CC(C)CNC(=O)C(=O)NCCc1ccc2c(c1)[C@H]1C[C@@H](N2)[C@H](O)CO1 [Compound 4, N-1-(2-((2R,3S,6R)-3-hydroxy-2,3,4,6-tetrahydro-1H-2,6-methanobenzo[c][1,5]oxazocin-8-yl)ethyl)-N2-isobutyloxalamide]	< 10	< 10
O=C(NCCc1cccc(C(F)(F)F)c1)C(=O)NCCc1ccc2c(c1)[C@H]1C[C@@H](N2)[C@H](O)CO1 [Compound 5, N1-(2-((2R,3S,6R)-3-hydroxy-2,3,4,6-tetrahydro-1H-2,6-methanobenzo[c][1,5]oxazocin-8-yl)ethyl)-N2-(3-(trifluoromethyl)phenethyl)oxalamide]	< 10	< 10
CSc1ccccc1[C@H]1CCCN1C(=O)C(=O)NCCc1ccc2c(c1)[C@H]1C[C@@H](N2)[C@H](O)CO1 [Compound 6, N-[2-((1R,9R,10S)-10-hydroxy-12-oxa-8-aza-tricyclo[7.3.1.02,7]trideca-2(7),3,5-trien-4-yl)-ethyl]-2-[(R)-2-(2-methylsulfanyl-phenyl)-pyrrolidin-1-yl]-2-oxo-acetamide]	10 to 100	10 to 100
O=C(NCCc1ccccc1)C(=O)NCCc1ccc2c(c1)[C@@H]1C[C@H](N2)[C@H](O)CO1 [Compound 8, N1-(2-((2S,3S,6S)-3-hydroxy-2,3,4,6-tetrahydro-1H-2,6-methanobenzo[c][1,5]oxazocin-8-yl)ethyl)-N2-phenethyloxalamide]	10 to 100	10 to 100
CC(C)(C)CNC(=O)C(=O)NCCc1ccc2c(c1)[C@@H]1C[C@H](N2)[C@H](O)CO1 [Compound 10, N1-(2-((2S,3S,6S)-3-hydroxy-2,3,4,6-tetrahydro-1H-2,6-methanobenzo[c][1,5]oxazocin-8-yl)ethyl)-N2-neopentyloxalamide]	10 to 100	10 to 100
O=C(NCCc1ccc2c(c1)[C@H]1C[C@@H](N2)[C@H](O)CO1)C(=O)NCc1cccc(C(F)(F)F)c1 [Compound 11, N1-(2-((2R,3S,6R)-3-hydroxy-2,3,4,6-tetrahydro-1H-2,6-methanobenzo[c][1,5]oxazocin-8-yl)ethyl)-N2-(3-(trifluoromethyl)benzyl)oxalamide]	10 to 100	10 to 100
O=C(NCCc1cccc(C(F)(F)F)c1)C(=O)NCCc1ccc2c(c1)[C@@H]1C[C@H](N2)[C@H](O)CO1 [Compound 12, N1-(2-((2S,3S,6S)-3-hydroxy-2,3,4,6-tetrahydro-1H-2,6-methanobenzo[c][1,5]oxazocin-8-yl)ethyl)-N2-(3-(trifluoromethyl)phenethyl)oxalamide]	10 to 100	10 to 100
O=C(NCc1ccc2c(c1)[C@@H]1C[C@H](N2)[C@H](O)CO1)C(=O)NC1CCCC1 [Compound 13, N-Cyclopentyl-N′-((1S,9S,10S)-10-hydroxy-12-oxa-8-aza-tricyclo[7.3.1.02,7]trideca-2,4,6-trien-4-ylmethyl)-oxalamide]	10 to 100	10 to 100
